Measurements from PubChem BioAssay AID1963853 (Molecular Pharmacology Branch, DTP, NCI, 2024).

Test system: 266295-075-R-J1-PDC spheroid viability
Experiment: Anticancer human tumor 266295-075-R-J1-PDC patient-derived head and neck squamous carcinoma cell line growth inhibition [POLQ]
Conditions: spheroids with HUVEC and MSC; for IC50: curve of first compound; for viability, T/C: stronger effect = lower value
Method in brief: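 Growth inhibition in 3D: complex spheroids (tumor PDC, HUVEC, MSC) treated with POLQ inhibitor combinations; where Cmax unknown, highest tested concentration 10 microM, except SN-38 at 1 microM.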

[1] = second compound 0.0316 µM, first compound 0.0316 µM
[2] = second compound 0.0316 µM, first compound 0.1 µM
[3] = second compound 0.0316 µM, first compound 0.316 µM
[4] = second compound 0.0316 µM, first compound 1 µM
[5] = second compound 0.0316 µM, first compound 3.16 µM
[6] = second compound 0.0316 µM, first compound 10 µM
[7] = second compound 0.1 µM, first compound 0.0316 µM
[8] = second compound 0.1 µM, first compound 0.1 µM
[9] = second compound 0.1 µM, first compound 0.316 µM
[10] = second compound 0.1 µM, first compound 1 µM
[11] = second compound 0.1 µM, first compound 3.16 µM
[12] = second compound 0.1 µM, first compound 10 µM
[13] = second compound 0.316 µM, first compound 0.0316 µM
[14] = second compound 0.316 µM, first compound 0.1 µM
[15] = second compound 0.316 µM, first compound 0.316 µM
[16] = second compound 0.316 µM, first compound 1 µM
[17] = second compound 0.316 µM, first compound 3.16 µM
[18] = second compound 0.316 µM, first compound 10 µM
[19] = second compound 1 µM, first compound 0.0316 µM
[20] = second compound 1 µM, first compound 0.1 µM
[21] = second compound 1 µM, first compound 0.316 µM
[22] = second compound 1 µM, first compound 1 µM
[23] = second compound 1 µM, first compound 3.16 µM
[24] = second compound 1 µM, first compound 10 µM
[25] = second compound 3.16 µM, first compound 0.0316 µM
[26] = second compound 3.16 µM, first compound 0.1 µM
[27] = second compound 3.16 µM, first compound 0.316 µM
[28] = second compound 3.16 µM, first compound 1 µM
[29] = second compound 3.16 µM, first compound 3.16 µM
[30] = second compound 3.16 µM, first compound 10 µM
[31] = second compound 10 µM, first compound 0.0316 µM
[32] = second compound 10 µM, first compound 0.1 µM
[33] = second compound 10 µM, first compound 0.316 µM
[34] = second compound 10 µM, first compound 1 µM
[35] = second compound 10 µM, first compound 3.16 µM
[36] = second compound 10 µM, first compound 10 µM
[37] = second compound 0.0316 µM, first compound 0.00949 µM
[38] = second compound 0.0316 µM, first compound 0.03 µM
[39] = second compound 0.0316 µM, first compound 0.0949 µM
[40] = second compound 0.0316 µM, first compound 0.3 µM
[41] = second compound 0.0316 µM, first compound 0.949 µM
[42] = second compound 0.0316 µM, first compound 3 µM
[43] = second compound 0.1 µM, first compound 0.00949 µM
[44] = second compound 0.1 µM, first compound 0.03 µM
[45] = second compound 0.1 µM, first compound 0.0949 µM
[46] = second compound 0.1 µM, first compound 0.3 µM
[47] = second compound 0.1 µM, first compound 0.949 µM
[48] = second compound 0.1 µM, first compound 3 µM
[49] = second compound 0.316 µM, first compound 0.00949 µM
[50] = second compound 0.316 µM, first compound 0.03 µM
[51] = second compound 0.316 µM, first compound 0.0949 µM
[52] = second compound 0.316 µM, first compound 0.3 µM
[53] = second compound 0.316 µM, first compound 0.949 µM
[54] = second compound 0.316 µM, first compound 3 µM
[55] = second compound 1 µM, first compound 0.00949 µM
[56] = second compound 1 µM, first compound 0.03 µM
[57] = second compound 1 µM, first compound 0.0949 µM
[58] = second compound 1 µM, first compound 0.3 µM
[59] = second compound 1 µM, first compound 0.949 µM
[60] = second compound 1 µM, first compound 3 µM
[61] = second compound 3.16 µM, first compound 0.00949 µM
[62] = second compound 3.16 µM, first compound 0.03 µM
[63] = second compound 3.16 µM, first compound 0.0949 µM
[64] = second compound 3.16 µM, first compound 0.3 µM
[65] = second compound 3.16 µM, first compound 0.949 µM
[66] = second compound 3.16 µM, first compound 3 µM
[67] = second compound 10 µM, first compound 0.00949 µM
[68] = second compound 10 µM, first compound 0.03 µM
[69] = second compound 10 µM, first compound 0.0949 µM
[70] = second compound 10 µM, first compound 0.3 µM
[71] = second compound 10 µM, first compound 0.949 µM
[72] = second compound 10 µM, first compound 3 µM
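Note: spheroids exposed to compounds for seven days before readout.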

O=C(c1cc(Cc2n[nH]c(=O)c3ccccc23)ccc1F)N1CCN(C(=O)C2CC2)CC1 + Nc1ccc(C#CCN(C(=O)Cc2ncc(C(F)(F)F)cc2C(F)(F)F)c2ccc(F)cc2)nn1
IC50 (second compound 0.0316 µM): > 10 µM
IC50 (second compound 0.1 µM): > 10 µM
IC50 (second compound 0.316 µM): > 10 µM
IC50 (second compound 1 µM): > 10 µM
IC50 (second compound 3.16 µM): > 10 µM
IC50 (second compound 10 µM): > 10 µM
viability, T/C [1]: 105%
viability, T/C [2]: 103%
viability, T/C [3]: 115%
viability, T/C [4]: 94.1%
viability, T/C [5]: 108%
viability, T/C [6]: 89%
viability, T/C [7]: 96.6%
viability, T/C [8]: 88.2%
viability, T/C [9]: 97.6%
viability, T/C [10]: 92.9%
viability, T/C [11]: 105%
viability, T/C [12]: 89.5%
viability, T/C [13]: 124%
viability, T/C [14]: 92.8%
viability, T/C [15]: 77.1%
viability, T/C [16]: 100%
viability, T/C [17]: 80.6%
viability, T/C [18]: 99.4%
viability, T/C [19]: 90.1%
viability, T/C [20]: 106%
viability, T/C [21]: 91.9%
viability, T/C [22]: 97.7%
viability, T/C [23]: 85.7%
viability, T/C [24]: 87%
viability, T/C [25]: 92.7%
viability, T/C [26]: 83.9%
viability, T/C [27]: 91%
viability, T/C [28]: 106%
viability, T/C [29]: 106%
viability, T/C [30]: 98.4%
viability, T/C [31]: 110%
viability, T/C [32]: 99.7%
viability, T/C [33]: 96.3%
viability, T/C [34]: 97.7%
viability, T/C [35]: 77%
viability, T/C [36]: 81.8%

CC(=O)O[C@H]1C(=O)[C@@]2(C)[C@H]([C@H](OC(=O)c3ccccc3)[C@]3(O)C[C@H](OC(=O)[C@H](O)[C@@H](NC(=O)c4ccccc4)c4ccccc4)C(C)=C1C3(C)C)[C@]1(OC(C)=O)CO[C@@H]1C[C@@H]2O + COC1C(OC(N)=O)C(O)C(Oc2ccc3c(O)c(NC(=O)c4ccc(O)c(CC=C(C)C)c4)c(=O)oc3c2C)OC1(C)C
IC50 (second compound 0.0316 µM): > 3 µM
IC50 (second compound 0.1 µM): > 3 µM
IC50 (second compound 0.316 µM): > 3 µM
IC50 (second compound 1 µM): > 3 µM
IC50 (second compound 3.16 µM): > 3 µM
IC50 (second compound 10 µM): > 3 µM
viability, T/C [37]: 79.5%
viability, T/C [38]: 69.1%
viability, T/C [39]: 63.3%
viability, T/C [40]: 86.2%
viability, T/C [41]: 75.6%
viability, T/C [42]: 71.3%
viability, T/C [43]: 92.3%
viability, T/C [44]: 79%
viability, T/C [45]: 61.2%
viability, T/C [46]: 73.2%
viability, T/C [47]: 78.1%
viability, T/C [48]: 69%
viability, T/C [49]: 93.6%
viability, T/C [50]: 73.4%
viability, T/C [51]: 66.5%
viability, T/C [52]: 67.4%
viability, T/C [53]: 72.1%
viability, T/C [54]: 81.2%
viability, T/C [55]: 76.9%
viability, T/C [56]: 70%
viability, T/C [57]: 67.8%
viability, T/C [58]: 80.7%
viability, T/C [59]: 77.3%
viability, T/C [60]: 65%
viability, T/C [61]: 81.9%
viability, T/C [62]: 83.6%
viability, T/C [63]: 62.5%
viability, T/C [64]: 75.5%
viability, T/C [65]: 71.3%
viability, T/C [66]: 75.2%
viability, T/C [67]: 85.6%
viability, T/C [68]: 72.3%
viability, T/C [69]: 62.8%
viability, T/C [70]: 60.5%
viability, T/C [71]: 75.5%
viability, T/C [72]: 74.7%

CC(=O)O[C@H]1C(=O)[C@@]2(C)[C@H]([C@H](OC(=O)c3ccccc3)[C@]3(O)C[C@H](OC(=O)[C@H](O)[C@@H](NC(=O)c4ccccc4)c4ccccc4)C(C)=C1C3(C)C)[C@]1(OC(C)=O)CO[C@@H]1C[C@@H]2O + Nc1ccc(C#CCN(C(=O)Cc2ncc(C(F)(F)F)cc2C(F)(F)F)c2ccc(F)cc2)nn1
IC50 (second compound 0.0316 µM): > 3 µM
IC50 (second compound 0.1 µM): > 3 µM
IC50 (second compound 0.316 µM): > 3 µM
IC50 (second compound 1 µM): > 3 µM
IC50 (second compound 3.16 µM): > 3 µM
IC50 (second compound 10 µM): > 3 µM
viability, T/C [37]: 98.3%
viability, T/C [38]: 78.9%
viability, T/C [39]: 73.9%
viability, T/C [40]: 76%
viability, T/C [41]: 78.8%
viability, T/C [42]: 78.3%
viability, T/C [43]: 75.6%
viability, T/C [44]: 84%
viability, T/C [45]: 69.3%
viability, T/C [46]: 69.3%
viability, T/C [47]: 70.7%
viability, T/C [48]: 71.3%
viability, T/C [49]: 94.1%
viability, T/C [50]: 82.9%
viability, T/C [51]: 63.7%
viability, T/C [52]: 55.3%
viability, T/C [53]: 77.5%
viability, T/C [54]: 61.4%
viability, T/C [55]: 81.3%
viability, T/C [56]: 59.1%
viability, T/C [57]: 69%
viability, T/C [58]: 70.7%
viability, T/C [59]: 72.7%
viability, T/C [60]: 66%
viability, T/C [61]: 71%
viability, T/C [62]: 80.5%
viability, T/C [63]: 77.4%
viability, T/C [64]: 62.8%
viability, T/C [65]: 65%
viability, T/C [66]: 67.4%
viability, T/C [67]: 72.4%
viability, T/C [68]: 74.6%
viability, T/C [69]: 63%
viability, T/C [70]: 71.1%
viability, T/C [71]: 76.7%
viability, T/C [72]: 77.2%

CC1COCCN1c1cc(C2(S(C)(=N)=O)CC2)nc(-c2ccnc3[nH]ccc23)n1 (stereo not drawn) + Cc1cccc(N(C)C(=O)C2C(O)CCN2c2nc(C)cc(C(F)(F)F)c2C#N)c1
IC50 (second compound 0.0316 µM): > 10 µM
IC50 (second compound 0.1 µM): > 10 µM
IC50 (second compound 0.316 µM): > 10 µM
IC50 (second compound 1 µM): 9.31 µM
IC50 (second compound 3.16 µM): > 10 µM
IC50 (second compound 10 µM): > 10 µM
viability, T/C [1]: 101%
viability, T/C [2]: 83.2%
viability, T/C [3]: 87%
viability, T/C [4]: 79.8%
viability, T/C [5]: 81.3%
viability, T/C [6]: 57%
viability, T/C [7]: 95.2%
viability, T/C [8]: 83.5%
viability, T/C [9]: 79.3%
viability, T/C [10]: 86.8%
viability, T/C [11]: 72.1%
viability, T/C [12]: 55.1%
viability, T/C [13]: 89.8%
viability, T/C [14]: 98.6%
viability, T/C [15]: 111%
viability, T/C [16]: 81.4%
viability, T/C [17]: 75.8%
viability, T/C [18]: 56.7%
viability, T/C [19]: 94.4%
viability, T/C [20]: 100%
viability, T/C [21]: 96.8%
viability, T/C [22]: 82.5%
viability, T/C [23]: 69.8%
viability, T/C [24]: 48.5%
viability, T/C [25]: 103%
viability, T/C [26]: 93.6%
viability, T/C [27]: 81.4%
viability, T/C [28]: 89.3%
viability, T/C [29]: 72.5%
viability, T/C [30]: 55.2%
viability, T/C [31]: 92.8%
viability, T/C [32]: 98.1%
viability, T/C [33]: 97.1%
viability, T/C [34]: 94.3%
viability, T/C [35]: 74.2%
viability, T/C [36]: 56.2%
